Earlier results, collected in patent US20080153925A1, “Use of Amphiphilic Copolymers as Solubilising Agents” (BASF Aktiengesellschaft, priority 2004, published 2008).
Converted amounts (≈) assume the structure as drawn.

Conditions: literature values

| Structure (SMILES) | Solubility in water (without copolymer) [µg/mL] |
| --- | --- |
| Nc1ccc(S(=O)(=O)Nc2nccs2)cc1 [Sulfathiazole] | 445 (≈ 1740 µM) |
| CCCCC(CC)COC(=O)c1ccc(Nc2nc(Nc3ccc(C(=O)OCC(CC)CCCC)cc3)nc(Nc3ccc(C(=O)OCC(CC)CCCC)cc3)n2)cc1 (centres unmarked) [Uvinul ® T150, tris(2-ethylhexyl) 4,4′,4″-(1,3,5-triazine-2,4,6-triyltriimino)trisbenzoate] | 0.007 (≈ 0.0085 µM) |
